In US9546138B2, “Pyridone derivatives and uses thereof in the treatment of tuberculosis” (priority 2012, dated 2017):
In brackets after ≈: the same amount, converted by molar mass. Where two headings read alike, the source gives them in different places.

Tests used:
Assay in all cases: microbe, parasite or virus in culture
Format in all cases: cell-based
[1] = test system: Mycobacterium tuberculosis H37Rv (ATCC #27294)
M. smeg WT (WT inhA) = details: Mycolicibacterium smegmatis, strain M. smeg WT, read-out: Compound MIC50
BCG WT (WT inhA) = details: Mycobacterium tuberculosis variant bovis BCG, read-out: Compound MIC50

Row | SMILES | MIC50 ([1]; 120 h, read-out: MTB MIC50) | also measured
1 | O=c1[nH]c(CC2CCCC2)cc(O)c1-c1ccccc1 [PD4, 6-(cyclopentylmethyl)-4-hydroxy-3-phenylpyridin-2(1H)-one] | 0.92 µM (≈ 0.248 µg/mL) | 
2 | O=c1[nH]c(CC2CCOCC2)cc(O)c1-c1ccccc1 [PD6, 4-hydroxy-3-phenyl-6-((tetrahydro-2H-pyran-4-yl)methyl)pyridin-2(1H)-one] | 10.1 µM (≈ 2.88 µg/mL) | 
3 | CC(C)Cc1cc(O)c(-c2ccccc2)c(=O)n1C [PD19, 4-hydroxy-6-isobutyl-1-methyl-3-phenylpyridin-2(1H)-one] | 8.14 µM (≈ 2.09 µg/mL) | 
4 | CC1(C)CCC(Cc2cc(OP(=O)(O)O)c(-c3ccccc3)c(=O)[nH]2)CC1 [PD22, 6-((4,4-dimethylcyclohexyl)methyl)-2-oxo-3-phenyl-1,2-dihydropyridin-4-yl dihydrogen phosphate] | 1.72 µM | 
5 | O=c1[nH]c(CC2CCC2)cc(O)c1-c1ccccc1 [PD5, 6-(cyclobutylmethyl)-4-hydroxy-3-phenylpyridin-2(1H)-one] | 1.19 µM (≈ 0.304 µg/mL) | 
6 | O=c1[nH]c(CC2CCCCC2)cc(O)c1-c1ccccc1 [PD2, 6-(cyclohexylmethyl)-4-hydroxy-3-phenylpyridin-2(1H)-one] | 0.22 µM (≈ 0.0623 µg/mL) | MIC50 ([1]; read-out: Compound MIC50): 0.16 µM (≈ 0.0453 µg/mL)
7 | NNC(=O)c1ccncc1 [Isoniazid, isoniazid, reference compound] |  | MIC50 (M. smeg WT (WT inhA)): > 20 µM; MIC50 (BCG WT (WT inhA); strain BCG WT, WT inhA): 0.3 µM (≈ 0.0411 µg/mL); MIC50 ([1]; read-out: Compound MIC50): 0.25 µM (≈ 0.0343 µg/mL)
8 | CC(C)Cc1[nH]c(=O)c(-c2ccccc2)c(O)c1C(N)=O [PD13, 4-hydroxy-2-isobutyl-6-oxo-5-phenyl-1,6-dihydropyridine-3-carboxamide] | 18.7 µM (≈ 5.35 µg/mL) | 
9 | CC(C)CCc1cc(O)c(-c2ccccc2)c(=O)[nH]1 [PD7, 4-hydroxy-6-isopentyl-3-phenylpyridin-2(1H)-one] | 1.51 µM (≈ 0.389 µg/mL) | 
10 | CCc1cc(C(N)=S)ccn1 [Ethionamide, reference compound] |  | MIC50 (M. smeg WT (WT inhA)): > 20 µM; MIC50 (BCG WT (WT inhA); BCG): 17 µM (≈ 2.83 µg/mL); MIC50 ([1]; read-out: Compound MIC50): 1.66 µM (≈ 0.276 µg/mL)
11 | O=c1[nH]c(Cc2ccncc2)cc(O)c1-c1ccccc1 [PD11, 4-hydroxy-3-phenyl-6-(pyridin-4-ylmethyl)pyridin-2(1H)-one] | 6.08 µM (≈ 1.69 µg/mL) | 
12 | CC1(C)CCC(Cc2cc(OCOP(=O)(O)O)c(-c3ccccc3)c(=O)[nH]2)CC1 [PD21, ((6-((4,4-dimethylcyclohexyl)methyl)-2-oxo-3-phenyl-1,2-dihydropyridin-4-yl)oxy)methyl dihydrogen phosphate] | 3.99 µM | 
13 | CC(C)Cc1cc(O)c(-c2ccccc2)c(=O)[nH]1 [PD12, 4-hydroxy-6-isobutyl-3-phenylpyridin-2(1H)-one] | 1.9 µM (≈ 0.462 µg/mL) | MIC50 (M. smeg WT (WT inhA)): 0.67 µM (≈ 0.163 µg/mL); MIC50 (BCG WT (WT inhA); strain BCG WT, WT inhA): 0.37 µM (≈ 0.09 µg/mL); MIC50 ([1]; read-out: Compound MIC50): 1.54 µM (≈ 0.375 µg/mL)
14 | O=c1[nH]c(Cc2ccccc2)cc(O)c1-c1ccccc1 [PD1, 6-benzyl-4-hydroxy-3-phenylpyridin-2(1H)-one] | 1.4 µM (≈ 0.388 µg/mL) | 
15 | CC(C)Cc1cc(O)c(-c2cccc(F)c2)c(=O)[nH]1 [PD18, 3-(3-fluorophenyl)-4-hydroxy-6-isobutylpyridin-2(1H)-one] | 2.69 µM (≈ 0.703 µg/mL) | 
16 | O=c1[nH]c(CC2CC2)cc(O)c1-c1ccccc1 [PD3, 6-(cyclopropylmethyl)-4-hydroxy-3-phenylpyridin-2(1H)-one] | 4.53 µM (≈ 1.09 µg/mL) | 
17 | CC1(C)CCC(Cc2cc(O)c(-c3ccccc3)c(=O)[nH]2)CC1 [PD10, 6-((4,4-dimethylcyclohexyl)methyl)-4-hydroxy-3-phenylpyridin-2(1H)-one] | 0.02 µM (≈ 0.00623 µg/mL) | MIC50 (M. smeg WT (WT inhA)): 0.4 µM (≈ 0.125 µg/mL); MIC50 (BCG WT (WT inhA); strain BCG WT, WT inhA): 0.02 µM (≈ 0.00623 µg/mL); MIC50 ([1]; read-out: Compound MIC50): 0.05 µM (≈ 0.0156 µg/mL)
18 | CC(C)Cc1cc(O)c(-c2cccc(Cl)c2)c(=O)[nH]1 [PD14, 3-(3-chlorophenyl)-4-hydroxy-6-isobutylpyridin-2(1H)-one] | 2.67 µM (≈ 0.742 µg/mL) | 
19 | O=c1[nH]c(CC2CCC(F)(F)CC2)cc(O)c1-c1ccccc1 [PD9, 6-((4,4-difluorocyclohexyl)methyl)-4-hydroxy-3-phenylpyridin-2(1H)-one] | 1.32 µM (≈ 0.422 µg/mL) | 
20 | CC(C)(C)Cc1cc(O)c(-c2ccccc2)c(=O)[nH]1 [PD8, 4-hydroxy-6-neopentyl-3-phenylpyridin-2(1H)-one] | 10 µM (≈ 2.58 µg/mL) | 
21 | CC(C)Cc1cc(O)c(-c2ccc(F)cc2F)c(=O)[nH]1 [PD17, 3-(2,4-difluorophenyl)-4-hydroxy-6-isobutylpyridin-2(1H)-one] | 9.18 µM (≈ 2.56 µg/mL) | 
22 | CC(C)Cc1cc(O)c(-c2ccc(F)cc2)c(=O)[nH]1 [PD15, 3-(4-fluorophenyl)-4-hydroxy-6-isobutylpyridin-2(1H)-one] | 6.75 µM (≈ 1.76 µg/mL) | 
